This is an account of results in ChEMBL document CHEMBL1201862, “PubChem BioAssay data set” (2004).

The structures appear in SMILES notation.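 Dose response: 5 concentrations. Exposure: 48 h. Format: 96-well plates. Endpoint: linear interpolation; highest concentration if not reached. GI50 is the concentration that inhibits growth by half.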 Active and inactive are the calls of the source. Rule as the data show it: active = GI50 up to about 1.1 µM and inactive = higher. Where a SMILES comes first, the peptide text is derived from it. The star is where a group is joined. Boc = CC(C)(C)OC(=O)*; tBu = CC(C)(C)*

Among the test systems are SK-MEL-2; MDA-N; SN12C; MCF7; CAKI-1; SK-MEL-28; TK-10; NCI/ADR-RES; U-251; ACHN; MDA-MB-231; SF-539; UACC-62; MOLT-4; SF-295; LOX IMVI; SK-OV-3; Hs-578T; SR; HCC 2998.
Common to all, as to assay: inhibition of tumour cell growth, NCI panel, 48 h

On to `O=c1c(S(=O)(=O)Oc2ccccc2)coc2cc(F)ccc12`, for which the GI50 was 46.8 µM (inactive) with SK-MEL-2; > 100 µM (inactive) with MDA-N; > 100 µM (inactive) in the assay on SN12C; 74.8 µM (inactive) in the assay on MCF7; > 100 µM (inactive) with CAKI-1; > 100 µM (inactive) with SK-MEL-28. The GI50 in the assay with TK-10 is > 100 µM (inactive); in the assay on NCI/ADR-RES it was 32.4 µM (inactive); with U-251 it was > 100 µM (inactive); in the assay on ACHN it was > 100 µM (inactive); with MDA-MB-231, > 100 µM (inactive); with SF-539 it was > 100 µM (inactive). In addition, the GI50 in the assay on UACC-62 was 60 µM (inactive); in the assay with MOLT-4 it was > 100 µM (inactive); in the assay with SF-295, 30.3 µM (inactive); in the assay on LOX IMVI, > 100 µM (inactive); with SK-OV-3 it was > 100 µM (inactive); with Hs-578T, 26.2 µM (inactive). The GI50 with SR and in the assay with HCC 2998 was > 100 µM (inactive) throughout.
Consider `COc1ccc(/C=C/C(=O)c2cc(OC)cc(OC)c2)cc1`, for which the GI50 in the assay on SK-MEL-2 is 18.7 µM (inactive); with MDA-N it was 1.94 µM (inactive); in the assay with SN12C, 3.56 µM (inactive); in the assay with MCF7, 0.219 µM (active); in the assay on CAKI-1, 2.59 µM (inactive); with SK-MEL-28 it was 5.97 µM (inactive). In addition, the GI50 was 11.5 µM (inactive) with TK-10; 2.69 µM (inactive) in the assay on NCI/ADR-RES; 1.24 µM (inactive) with U-251; 4.7 µM (inactive) in the assay with ACHN; 6.79 µM (inactive) in the assay with MDA-MB-231; 1.05 µM (active) in the assay with SF-539. Further, the GI50 in the assay with UACC-62 was 4.14 µM (inactive); in the assay with MOLT-4, 4.63 µM (inactive); in the assay with SF-295, 1.24 µM (inactive); with LOX IMVI, 1.35 µM (inactive); with SK-OV-3 it was 6.71 µM (inactive); in the assay with Hs-578T, 5.75 µM (inactive). Also, the GI50 in the assay with SR was 0.371 µM (active); in the assay with HCC 2998 it was 4.44 µM (inactive).
In the case of `COc1c(C)c(OC)c2c(c1O)[C@@H]1[C@@H]3Cc4c(OC)c(C)c(OC)c(O)c4[C@H](CNC(=O)c4cnc5ccccc5n4)N3[C@@H](C#N)[C@H](C2)N1C`, the GI50 with SK-MEL-2 is 0.00183 µM (active); in the assay with MDA-N it was 0.00138 µM (active); with SN12C, 0.00329 µM (active); in the assay with MCF7, 0.00135 µM (active); in the assay on CAKI-1, 0.00536 µM (active); with SK-MEL-28, 0.0029 µM (active). Further, the GI50 in the assay on TK-10 is 0.00771 µM (active); in the assay on NCI/ADR-RES, > 0.0643 µM (active); in the assay with U-251 it was 0.00135 µM (active); with ACHN it was 0.00348 µM (active); in the assay on MDA-MB-231 it was 0.00326 µM (active); in the assay with SF-539, 0.000873 µM (active). For the same molecule, the GI50 is 0.00123 µM (active) in the assay with UACC-62; 0.000689 µM (active) with MOLT-4; 0.00296 µM (active) in the assay with SF-295; 0.00108 µM (active) in the assay with LOX IMVI; 0.0125 µM (active) with SK-OV-3; 0.00134 µM (active) in the assay with Hs-578T. Moreover, the GI50 is 0.000182 µM (active) in the assay on SR and 0.00327 µM (active) in the assay on HCC 2998.
In the case of `CC(OC(C)(C)C)C(NC(=O)C(N)CCCCNC(=O)OC(C)(C)C)C(=O)NC(Cc1ccccc1)C(=O)O` (stereo not given) (H-Lys(Boc)-Thr(tBu)-Phe-OH; configuration not given here), the GI50 in the assay on SK-MEL-2, with MDA-N, in the assay with SN12C, in the assay on MCF7, in the assay with CAKI-1 and with SK-MEL-28 was > 100 µM (inactive) in each case. Further, the GI50 in the assay on TK-10, in the assay on NCI/ADR-RES, in the assay with U-251, in the assay with ACHN, in the assay with MDA-MB-231 and with SF-539 was > 100 µM (inactive) throughout. The GI50 in the assay on UACC-62 is > 100 µM (inactive); in the assay on MOLT-4 it was > 100 µM (inactive); in the assay on SF-295, > 100 µM (inactive); with LOX IMVI it was > 100 µM (inactive); in the assay with SK-OV-3 it was 15.2 µM (inactive); with Hs-578T, > 100 µM (inactive). Also, the GI50 in the assay with SR and in the assay on HCC 2998 was > 100 µM (inactive) in each case.
